Data on eight compounds can be found in ChEMBL document CHEMBL1201862, “PubChem BioAssay data set” (2004).

Usually EC50 stands for the midpoint of the concentration-response curve.

The subject of one assay is BJ. The experiment in a line: cells. The class given is functional, cell-based. The note with it: Homo sapiens.
In assay [1] the target is Small ubiquitin-related modifier 2 (Homo sapiens, UniProt P61956). The experiment in a line: SUMO2–SIM peptide binding inhibitors, dose response, selectivity assay for SUMO1 interaction inhibitor project, biochemical, fluorescence polarization, uHTS hits (AID 624385). It is filed as functional. Conditions: read-out: IC50_Mean. (Fluorescence polarisation rises when a labelled molecule tumbles more slowly, as on binding a larger partner.)

Assay [2] concerns the target Small ubiquitin-related modifier 1 (Homo sapiens, UniProt P63165). The experiment in a line: inhibitors of SUMO1 peptide binding, dose response, biochemical, fluorescence polarization, uHTS hits (AID 624382). The class given is functional. Conditions: read-out: IC50_Mean.
Assay [3] concerns the target T1, RNA-editing ligase 1, mitochondrial (Trypanosoma brucei brucei, UniProt P86926).
T1 sequence (P86926 whole entry): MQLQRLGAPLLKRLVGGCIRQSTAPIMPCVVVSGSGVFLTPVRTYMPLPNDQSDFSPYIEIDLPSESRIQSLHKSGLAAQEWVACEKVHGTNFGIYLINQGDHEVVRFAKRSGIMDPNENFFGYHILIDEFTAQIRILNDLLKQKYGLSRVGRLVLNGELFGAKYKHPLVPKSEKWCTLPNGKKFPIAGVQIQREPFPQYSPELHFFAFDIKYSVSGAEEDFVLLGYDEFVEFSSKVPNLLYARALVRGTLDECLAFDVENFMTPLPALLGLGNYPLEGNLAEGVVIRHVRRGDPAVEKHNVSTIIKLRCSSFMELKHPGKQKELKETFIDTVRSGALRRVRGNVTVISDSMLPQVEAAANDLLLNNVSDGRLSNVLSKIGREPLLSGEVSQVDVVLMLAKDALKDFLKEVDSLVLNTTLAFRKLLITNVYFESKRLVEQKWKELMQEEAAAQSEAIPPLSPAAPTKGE
The experiment in a line: TbREL1 ligase inhibitors, dose response, biochemical, fluorescence, Trypanosoma brucei (AID 1117295). The class given is functional.

A further assay has as its target T2, Hexokinase HKDC1 (Homo sapiens, UniProt Q2TB90).
T2 sequence (Q2TB90 whole entry): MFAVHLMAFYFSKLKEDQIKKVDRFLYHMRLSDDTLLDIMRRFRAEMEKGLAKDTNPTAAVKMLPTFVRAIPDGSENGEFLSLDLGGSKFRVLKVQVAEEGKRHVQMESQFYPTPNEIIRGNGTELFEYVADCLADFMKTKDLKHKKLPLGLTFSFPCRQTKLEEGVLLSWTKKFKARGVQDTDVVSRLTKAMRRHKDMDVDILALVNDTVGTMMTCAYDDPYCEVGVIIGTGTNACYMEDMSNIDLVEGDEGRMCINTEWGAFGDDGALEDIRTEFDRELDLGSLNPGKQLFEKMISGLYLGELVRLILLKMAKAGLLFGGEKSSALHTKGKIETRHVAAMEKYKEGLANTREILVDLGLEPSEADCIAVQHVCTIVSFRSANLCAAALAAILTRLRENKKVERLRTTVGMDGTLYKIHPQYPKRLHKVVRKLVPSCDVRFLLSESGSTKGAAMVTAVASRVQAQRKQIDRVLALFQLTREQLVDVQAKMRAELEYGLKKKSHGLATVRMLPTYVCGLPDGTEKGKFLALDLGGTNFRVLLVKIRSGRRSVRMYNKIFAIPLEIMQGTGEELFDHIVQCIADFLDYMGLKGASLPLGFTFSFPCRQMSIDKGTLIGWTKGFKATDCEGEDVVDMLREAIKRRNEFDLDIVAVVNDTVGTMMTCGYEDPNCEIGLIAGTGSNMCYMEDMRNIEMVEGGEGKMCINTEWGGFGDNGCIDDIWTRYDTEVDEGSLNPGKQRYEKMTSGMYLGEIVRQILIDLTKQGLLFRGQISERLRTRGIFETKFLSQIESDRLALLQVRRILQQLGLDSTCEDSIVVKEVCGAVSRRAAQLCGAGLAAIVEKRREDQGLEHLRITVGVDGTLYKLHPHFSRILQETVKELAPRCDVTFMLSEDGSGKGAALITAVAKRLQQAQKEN
The experiment in a line: HKDC1 hexokinase inhibitors, dose response, biochemical, W721R variant (AID 504729). The class given is functional.

For the next assay, the target named is Genome polyprotein (dengue virus type 2, UniProt P29990). The experiment in a line: Dengue-2 NS5 methyltransferase inhibitors, primary screen, biochemical, confirmation dose response (AID 588689). The class given is functional.
The target of assay [4] is T3, Sentrin-specific protease 8 (Homo sapiens, UniProt Q96LD8).
T3 sequence (Q96LD8 whole entry): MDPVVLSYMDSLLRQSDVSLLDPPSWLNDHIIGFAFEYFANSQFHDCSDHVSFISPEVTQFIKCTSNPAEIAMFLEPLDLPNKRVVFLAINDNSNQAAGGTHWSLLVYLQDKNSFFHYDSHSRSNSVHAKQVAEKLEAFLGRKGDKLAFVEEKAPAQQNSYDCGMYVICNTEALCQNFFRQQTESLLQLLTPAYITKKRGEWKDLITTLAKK
It is filed as functional.

SMILES strings stand for the structures. Calls of active or inactive are those of the source.

Chain of Genome polyprotein (P29990 2492-3391 limits assumed): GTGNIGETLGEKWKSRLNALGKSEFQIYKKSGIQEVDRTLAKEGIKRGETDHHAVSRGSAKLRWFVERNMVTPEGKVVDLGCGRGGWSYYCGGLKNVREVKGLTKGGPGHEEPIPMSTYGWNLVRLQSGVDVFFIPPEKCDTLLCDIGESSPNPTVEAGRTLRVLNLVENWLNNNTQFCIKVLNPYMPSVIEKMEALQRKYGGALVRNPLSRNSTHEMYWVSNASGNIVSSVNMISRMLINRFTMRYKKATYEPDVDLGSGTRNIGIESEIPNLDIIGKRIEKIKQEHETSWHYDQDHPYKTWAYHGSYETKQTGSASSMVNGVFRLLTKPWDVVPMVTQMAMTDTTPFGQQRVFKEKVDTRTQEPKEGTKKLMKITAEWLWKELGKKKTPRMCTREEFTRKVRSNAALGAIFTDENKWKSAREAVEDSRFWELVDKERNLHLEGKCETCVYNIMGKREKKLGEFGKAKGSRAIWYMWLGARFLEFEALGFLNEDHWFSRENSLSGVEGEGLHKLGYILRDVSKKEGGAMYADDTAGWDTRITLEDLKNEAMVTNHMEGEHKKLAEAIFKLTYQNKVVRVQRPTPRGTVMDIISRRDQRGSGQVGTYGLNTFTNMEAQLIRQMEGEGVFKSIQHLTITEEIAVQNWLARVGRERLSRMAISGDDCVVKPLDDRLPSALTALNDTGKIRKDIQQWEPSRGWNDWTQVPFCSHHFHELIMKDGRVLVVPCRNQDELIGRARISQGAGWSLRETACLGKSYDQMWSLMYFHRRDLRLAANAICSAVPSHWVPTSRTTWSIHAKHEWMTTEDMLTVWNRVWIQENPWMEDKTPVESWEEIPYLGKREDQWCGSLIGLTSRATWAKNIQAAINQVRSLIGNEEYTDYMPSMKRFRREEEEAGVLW
Chain of Small ubiquitin-related modifier 2 (P61956 whole entry): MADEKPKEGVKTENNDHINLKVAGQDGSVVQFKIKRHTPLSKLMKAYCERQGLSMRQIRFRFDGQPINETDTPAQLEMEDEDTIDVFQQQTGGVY
Chain of Small ubiquitin-related modifier 1 (P63165 whole entry): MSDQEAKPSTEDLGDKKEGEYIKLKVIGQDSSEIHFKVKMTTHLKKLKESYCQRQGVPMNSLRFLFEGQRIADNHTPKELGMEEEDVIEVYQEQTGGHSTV

As to `CCN1/C(=C/c2ccc3cc(C)ccc3[n+]2CC)Sc2cc(C)c(C)cc21`, the 50% effective concentration (EC50) in the assay with BJ was 2.34 µM (active).
Turning to `Nc1ccc2nc3c(O)nc(S)nc3nc2c1`, the IC50 is 55.2 µM (inactive) in assay [1], 5.69 µM (active) in assay [2] and 2.76 µM (active) in assay [3].
In the case of `Cc1oc2c(c1C(=O)c1ccccc1)C(=O)C(=O)c1ccccc1-2`, the IC50 at Hexokinase HKDC1 is 14.5 µM (active); on Genome polyprotein it was 48.4 µM (active); in assay [3], 10.3 µM (inactive).
For `O=C1CCCC2=C1C1(O)C(=O)c3ccccc3C1(O)O2` (stereo not drawn), the IC50 in assay [4] was 2.52 µM (active).
As for `CSc1ccc(C=NNc2ccc(S(=O)(=O)Nc3ccccc3C(=O)O)cc2[N+](=O)[O-])cc1`, the IC50 in assay [1] is 2.38 µM (active); in assay [2], 3.23 µM (active).
For the compound `O=C(O)COc1ccc(/C=N/NC(=O)c2ccc(-c3csc(Nc4ccc(Cl)cc4)n3)cc2)cc1`, on Hexokinase HKDC1, the IC50 was 33 µM (inactive).
With `COc1cc(NCCCNC(C)C)c2nccc(C)c2c1`, the IC50 in assay [4] was 3.89 µM (active).
As to `CC(/C=C1\SC(=S)N(NS(=O)(=O)c2ccccc2)C1=O)=C\c1ccccc1`, on Genome polyprotein, the IC50 is 29.3 µM (active).
